Test results published in patent US20220133688A1, “MACROCYCLIC LACTONE ANTHELMINTICS AGAINST NEMATODES” (Bayer Animal Health GmbH, priority 2019, published 2022).
Several values for one entry are separate records, joined by “and”; a condition that tells them apart may be missing. Equal values may be shown once. Read-outs that look alike come from different tables or passages of the source.

Legend:
[1] = test system: D. immitis Mf, Missouri isolate; test: Cell attachment assay (canine PMN or PBMC attachment to Mf), Missouri isolate; format: cell-based, Dirofilaria immitis
[2] = test system: D. immitis Mf, Georgia-2 isolate; test: Cell attachment assay (canine PMN or PBMC attachment to Mf), Georgia-2 isolate; format: cell-based, Dirofilaria immitis

SMILES	Percentage (±SEM) of Mf with cells attached [1]	lowest drug concentration at which a statistically significant increase (p = <0.05) in cell attachment was observed compared to the no-drug control [1] [nM]	Percentage (±SEM) of Mf with cells attached [2]	lowest drug concentration at which a statistically significant increase (p = <0.05) in cell attachment was observed compared to the no-drug control [2] [nM]	Percentage (±SEM) of Mf with cells attached ([1]; PBMC, 1 μM drug, Missouri Mf) [%]	lowest drug concentration at which a statistically significant increase (p = <0.05) in cell attachment was observed compared to the no-drug control ([1]; PBMC, 40 h, Missouri Mf, 2-way ANOVA) [nM]	Percentage (±SEM) of Mf with cells attached ([1]; PMN, 1 μM drug, Missouri Mf) [%]	lowest drug concentration at which a statistically significant increase (p = <0.05) in cell attachment was observed compared to the no-drug control ([1]; PMN, 24 h, Missouri Mf, 2-way ANOVA) [nM]	Percentage (±SEM) of Mf with cells attached ([2]; PBMC, 1 μM drug, Georgia-2 Mf) [%]	lowest drug concentration at which a statistically significant increase (p = <0.05) in cell attachment was observed compared to the no-drug control ([2]; PBMC, 40 h, Georgia-2 Mf, 2-way ANOVA) [nM]	Percentage (±SEM) of Mf with cells attached ([2]; PMN, 1 μM drug, Georgia-2 Mf) [%]	lowest drug concentration at which a statistically significant increase (p = <0.05) in cell attachment was observed compared to the no-drug control ([2]; PMN, 24 h, Georgia-2 Mf, 2-way ANOVA) [nM]
CC[C@H](C)[C@H]1O[C@]2(CC[C@@H]1C)C[C@@H]1C[C@@H](C/C=C(\C)[C@@H](O[C@H]3C[C@H](OC)[C@@H](O[C@H]4C[C@H](OC)[C@@H](O)[C@H](C)O4)[C@H](C)O3)[C@@H](C)/C=C/C=C3\CO[C@@H]4[C@H](O)C(C)=C[C@@H](C(=O)O1)[C@]34O)O2 [IVM, ivermectin]	48 ± 6% and 60 ± 3%	3	41 ± 6% and 71 ± 5%	1	–	–	–	–	–	–	–	–
CO/N=C1\C[C@]2(C[C@@H]3C[C@@H](C/C=C(\C)C[C@@H](C)/C=C/C=C4\CO[C@@H]5[C@H](O)C(C)=C[C@@H](C(=O)O3)[C@]45O)O2)O[C@H](/C(C)=C/C(C)C)[C@H]1C [MOX, moxidectin]	–	–	–	–	63 ± 5	1	65 ± 5	3	63 ± 5	1	54 ± 6	3
